For one assay, the system named is SMMC-7721 cells. Briefly: MTT assay, proliferation of SMMC-7721 cells. Type of assay: cell-based, human. The following applies: Homo sapiens; for pIC50: SMMC-7721, 48 h. How it is done:
(§1) The in vitro antitumor activities of the synthesized compounds 7a-l and 8a-l against five human cancer cells were evaluated in MTT assays using 5-fluorouracil (5-FU) and harmine as positive controls. These cells are human hepatocellular carcinoma cells (SMMC-7721 and Hep G2), human colon cancer cell lines (HCT116), human bladder carcinoma cells (EJ), and human lung cancer cells (H460).
(§2) Hepatocellular carcinoma cells (SMMC-7721 and Hep G2), Human colon cancer cell lines (HCT116), human bladder carcinoma cells (EJ) or human lung cancer cells (H460) at 10^4 cells per well were cultured in 10% FBS DMEM in 96-well flat-bottom microplates overnight. The cells were incubated in triplicate with, or without, different concentrations of each test compound for 48 h. During the last 4 h incubation, 30 μL of tetrazolium dye (MTT) solution (5 mg mL^−1) was added to each well. The resulting MTT-formazan crystals were dissolved in 150 μL DMSO, and absorbance was measured spectrophotometrically at 570 nm using an ELISA plate reader. The inhibition induced by each test compound at the indicated concentrations was expressed as a percentage. The concentration required for 50% inhibition (IC50) was calculated using the software (GraphPadPrism Version 4.03).
On the technique in general: Tetrazolium dyes change colour on reduction, which living cells bring about.

The subject of a further assay is Hep G2 cells. Briefly: MTT assay, proliferation of Hep G2 cells. The assay is classed as cell-based. The following applies: Homo sapiens, HepG2, 48 h, read-out: In vitro cytotoxicity (IC50) Hep G2. How it is done:
as §1, §2

For the next assay, the system named is HCT116 cells. Nature of the assay: MTT assay, proliferation of HCT116 cells. Type of assay: cell-based. As to conditions: Homo sapiens, HCT-116, 48 h, read-out: In vitro cytotoxicity (IC50) HCT116. How it is done:
as §1, §2

A further assay has as its system EJ cells. Nature of the assay: MTT assay, proliferation of EJ cells. Type of assay: cell-based. As to conditions: 48 h, EJ human bladder carcinoma cells, read-out: In vitro cytotoxicity (IC50) EJ. How it is done: as §1, §2
A further assay relates to H460 cells. Nature of the assay: MTT assay, proliferation of H460 cells. Type of assay: cell-based. As to conditions: NCI-H460, 48 h, H460 human lung cancer cells, read-out: In vitro cytotoxicity (IC50) H460. The method, then:
as §1, §2

Setting [1] is: read-out: In vitro cytotoxicity (IC50) SMMC-7721, MTT assay, 48 h, SMMC-7721 human hepatocellular carcinoma cells.

pIC50: −log10 of the molar value. Where two headings read alike, the source gives them in different places.

By pIC50 is commonly meant the negative decadic logarithm of the IC50, by convention in mol/L. Turning to `COc1ccc(-c2nc(C(=O)NCCCCNC(=O)c3ccccc3C)cc3c2[nH]c2ccccc23)cc1` [7f, 1-(4-Methoxyphenyl)-N-(4-(2-methylbenzamido)butyl)-9H-pyrido[3,4-b]indole-3-carboxamide], the pIC50 in the assay on SMMC-7721 cells (setting [1]) is 4.59; in the assay on Hep G2 cells it was 4.51; in the assay on HCT116 cells, 4.49; in the assay on EJ cells, 4.53; in the assay on H460 cells, 4.42.
For `COc1ccc2c(c1)[nH]c1c(C)nccc12` [harmine, reference compound], the negative logarithm of the IC50 (pIC50) in the assay on SMMC-7721 cells (read-out: In vitro cytotoxicity (IC50) SMMC-7721) was 4.31; in the assay on Hep G2 cells, 4.26; with HCT116 cells, 4.33.
With `COc1ccc(-c2nc(C(=O)NCCCNC(=O)c3ccccc3O)cc3c2[nH]c2ccccc23)cc1` [8c, N-(3-(2-Hydroxybenzamido)propyl)-1-(4-methoxyphenyl)-9H-pyrido[3,4-b]indole-3-carboxamide], the negative-log IC50 (pIC50) with SMMC-7721 cells (setting [1]) is 4.44; in the assay on Hep G2 cells, 4.34; with HCT116 cells, 4.48; in the assay with EJ cells it was 4.41; in the assay with H460 cells, below 4.30.
On to `Cc1nc(C(=O)NCCCCCCNC(=O)c2ccccc2O)cc2c1[nH]c1ccccc12` [8k, N-(6-(2-Hydroxybenzamido)hexyl)-1-methyl-9H-pyrido[3,4-b]indole-3-carboxamide], for which the pIC50 is 5.00 in the assay with SMMC-7721 cells (setting [1]); 4.87 in the assay with Hep G2 cells; 4.97 with HCT116 cells; 4.88 in the assay on EJ cells; 4.94 in the assay with H460 cells.
`COc1ccc(-c2nc(C(=O)NCCCCCCNC(=O)c3ccccc3O)cc3c2[nH]c2ccccc23)cc1` [8l, N-(6-(2-Hydroxybenzamido)hexyl)-1-(4-methoxyphenyl)-9H-pyrido[3,4-b]indole-3-carboxamide]: the pIC50 in the assay with SMMC-7721 cells (setting [1]) was below 4.30; in the assay on Hep G2 cells, 4.38; in the assay on HCT116 cells it was below 4.30; with H460 cells, below 4.30.
`O=C(NCCCCCNC(=O)c1ccccc1O)c1cc2c(cn1)[nH]c1ccccc12` [8g, N-(5-(2-Hydroxybenzamido)pentyl)-9H-pyrido[3,4-b]indole-3-carboxamide]: the pIC50 with SMMC-7721 cells (setting [1]) is 4.97; with Hep G2 cells, 5.04; with HCT116 cells it was 5.04; in the assay with EJ cells, 5.06; in the assay on H460 cells, 4.90.
Consider `COc1ccc(-c2nc(C(=O)NCCCNC(=O)c3ccccc3C)cc3c2[nH]c2ccccc23)cc1` [7c, 1-(4-Methoxyphenyl)-N-(3-(2-methylbenzamido)propyl)-9H-pyrido[3,4-b]indole-3-carboxamide], for which the negative logarithm of the IC50 (pIC50) in the assay with SMMC-7721 cells (setting [1]), in the assay on Hep G2 cells, in the assay on HCT116 cells, with EJ cells and in the assay on H460 cells was below 4.30 throughout.
In the case of `Cc1nc(C(=O)NCCCNC(=O)c2ccccc2O)cc2c1[nH]c1ccccc12` [8b, N-(3-(2-Hydroxybenzamido)propyl)−1-methyl-9H-pyrido[3,4-b]indole-3-carboxamide], the negative-log IC50 (pIC50) in the assay with SMMC-7721 cells (setting [1]) was 4.72; in the assay with HCT116 cells it was 4.87; in the assay on EJ cells, 4.82; in the assay with H460 cells it was 4.65.
`Cc1nc(C(=O)NCCCCNC(=O)c2ccccc2O)cc2c1[nH]c1ccccc12` [8e, N-(4-(2-Hydroxybenzamido)butyl)−1-methyl-9H-pyrido[3,4-b]indole-3-carboxamide]: the negative logarithm of the IC50 (pIC50) in the assay on SMMC-7721 cells (setting [1]) was 5.10; with Hep G2 cells, 5.03; in the assay with HCT116 cells it was 5.03; in the assay on EJ cells, 5.05; in the assay with H460 cells it was 4.92.
In the case of `O=C(O)c1ccccc1O` [SA, salicylic acid], the inhibition at 25 µM in the assay on SMMC-7721 cells (SMMC-7721, 25 μM, 48 h, MTT assay, read-out: Inhibition of SMMC-7721 cell proliferation) was around 15%.
Consider `O=C(NCCCCCCNC(=O)c1ccccc1O)c1cc2c(cn1)[nH]c1ccccc12` [8j, N-(6-(2-Hydroxybenzamido)hexyl)-9H-pyrido[3,4-b]indole-3-carboxamide], for which the negative logarithm of the IC50 (pIC50) was 4.87 in the assay with SMMC-7721 cells (setting [1]); 4.76 with Hep G2 cells; 4.73 with HCT116 cells; 4.78 in the assay on EJ cells; 4.67 in the assay with H460 cells.
On to `O=C(NCCCNC(=O)c1ccccc1O)c1cc2c(cn1)[nH]c1ccccc12` [8a, N-(3-(2-Hydroxybenzamido)propyl)-9H-pyrido[3,4-b]indole-3-carboxamide], for which the negative logarithm of the IC50 (pIC50) in the assay with SMMC-7721 cells (setting [1]) was 4.65; with Hep G2 cells it was 4.72; in the assay on HCT116 cells, 4.70; in the assay with EJ cells, 4.80; in the assay with H460 cells, 4.59.
The corresponding values for `Cc1ccccc1C(=O)NCCCCCNC(=O)c1cc2c(cn1)[nH]c1ccccc12` [7g, N-(5-(2-Methylbenzamido)pentyl)-9H-pyrido[3,4-b]indole-3-carboxamide] are 4.80, 4.84, 4.77, 4.82 and 4.71.
As for `COc1ccc(-c2nc(C(=O)NCCCCCCNC(=O)c3ccccc3C)cc3c2[nH]c2ccccc23)cc1` [7l, 1-(4-Methoxyphenyl)-N-(6-(2-methylbenzamido)hexyl)-9H-pyrido[3,4-b]indole-3-carboxamide], the negative logarithm of the IC50 (pIC50) in the assay on SMMC-7721 cells (setting [1]), in the assay on HCT116 cells and in the assay with H460 cells was below 4.30 throughout.
As to `Cc1ccccc1C(=O)NCCCCNC(=O)c1cc2c(cn1)[nH]c1ccccc12` [7d, N-(4-(2-Methylbenzamido)butyl)-9H-pyrido[3,4-b]indole-3-carboxamide], the pIC50 in the assay with SMMC-7721 cells (setting [1]) was 4.61; with Hep G2 cells, 4.72; in the assay with HCT116 cells, 4.67; in the assay with EJ cells, 4.74; in the assay with H460 cells, 4.63.
For the compound `O=C(NCCCCNC(=O)c1ccccc1O)c1cc2c(cn1)[nH]c1ccccc12` [8d, N-(4-(2-Hydroxybenzamido)butyl)-9H-pyrido[3,4-b]indole-3-carboxamide], the pIC50 in the assay on SMMC-7721 cells (setting [1]) is 4.89; in the assay on Hep G2 cells it was 4.93; in the assay on HCT116 cells, 4.80; in the assay with EJ cells, 4.92; in the assay on H460 cells it was 4.82.
For `COc1ccc(-c2nc(C(=O)NCCCCCNC(=O)c3ccccc3C)cc3c2[nH]c2ccccc23)cc1` [7i, 1-(4-Methoxyphenyl)-N-(5-(2-methylbenzamido)pentyl)-9H-pyrido[3,4-b]indole-3-carboxamide], the pIC50 was 4.42 with SMMC-7721 cells (setting [1]); below 4.30 with Hep G2 cells; 4.34 with HCT116 cells; below 4.30 in the assay with EJ cells; 4.56 in the assay on H460 cells.
For `Cc1ccccc1C(=O)NCCCNC(=O)c1cc2c([nH]c3ccccc32)c(C)n1` [7b, 1-Methyl-N-(3-(2-methylbenzamido)propyl)-9H-pyrido[3,4-b]indole-3-carboxamide], the negative logarithm of the IC50 (pIC50) is 4.56 in the assay with SMMC-7721 cells (setting [1]); 4.63 in the assay with Hep G2 cells; 4.54 in the assay with HCT116 cells; 4.63 in the assay with EJ cells; 4.52 in the assay with H460 cells.
Take `Cc1ccccc1C(=O)NCCCCCNC(=O)c1cc2c([nH]c3ccccc32)c(C)n1` [7h, 1-Methyl-N-(5-(2-methylbenzamido)pentyl)-9H-pyrido[3,4-b]indole-3-carboxamide]: the pIC50 is 4.89 in the assay with SMMC-7721 cells (setting [1]); 4.95 in the assay with Hep G2 cells; 4.80 in the assay on HCT116 cells; 4.92 with EJ cells; 4.88 in the assay on H460 cells.
The corresponding values for `Cc1ccccc1C(=O)NCCCNC(=O)c1cc2c(cn1)[nH]c1ccccc12` [7a, N-(3-(2-Methylbenzamido)propyl)-9H-pyrido[3,4-b]indole-3-carboxamide] are 4.46, 4.49, 4.44, 4.60 and 4.51.

For the origin of these results see paper PMC5099944, “Design, synthesis and biological evaluation of hybrids of β-carboline and salicylic acid as potential anticancer and apoptosis inducing agents” (Scientific Reports, 2016).
